The assay deals with T1, human GPR120 (Homo sapiens, UniProt Q5NUL3).
T1 construct: host or cells: HEK293 cells co-expressing Gqi5
T1 sequence (Q5NUL3 1-361): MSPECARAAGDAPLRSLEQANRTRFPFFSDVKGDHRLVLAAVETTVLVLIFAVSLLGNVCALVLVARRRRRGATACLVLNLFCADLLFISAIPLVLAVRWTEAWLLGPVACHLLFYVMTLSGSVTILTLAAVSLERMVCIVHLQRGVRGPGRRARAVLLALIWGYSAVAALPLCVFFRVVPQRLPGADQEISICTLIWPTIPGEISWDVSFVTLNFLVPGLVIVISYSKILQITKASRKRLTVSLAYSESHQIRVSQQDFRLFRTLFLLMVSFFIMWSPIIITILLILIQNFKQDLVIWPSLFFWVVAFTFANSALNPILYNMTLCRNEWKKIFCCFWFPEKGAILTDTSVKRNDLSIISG
In words: Intracellular Ca2+ assay in human GPR120 stable cell line (HEK293 co-expressing Gqi5), Flexstation. The format is cell-based. The note with it: for % Activity (GW9508 Reference Compound): % activity at 5 μM compared to the maximal activity of GW9508 at 6.7 μM (=100%), human GPR120 cells, Ca2+ fluorescence; for EC50: human GPR120 stably expressing cells, Ca2+ fluorescence (Max-Min), eight concentrations 0.00001 to 20 μM. The method, then: Human GPR120 stable cell line was purchased from Multispan Inc (26219 Eden Landing Road, Hayward, Calif. 94545). This GPR120 cell line was generated in HEK293 cells co-expressing Gqi5. In this cell line, the Flag epitope tag (DYKDDDDK) was fused to the amino terminus of human GPR120 protein.
The concentration of intracellular Ca^2+ was measured as described below. Human GPR120 cells were plated in 96 well plates (Poly-D-Lysine coated black/clear Plate, Greiner Bio-One) at 70,000 cells per well and cultured overnight in conditions of 37° C. and 5% CO2. A Ca^2+assay dye stock solution was prepared by adding 10 mL of assay buffer (HBSS/20 mM HEPES, pH 7.4) to FLIPR Calcium 4 Assay Bulk Kit (Molecular Devices). The 10 mL of Ca^2+ assay dye solution was prepared by further diluting 0.5 mL of Ca^2+ assay dye stock solution with 10 mL of assay buffer. The medium of the cells was removed and immediately 100 μL of the Ca^2+ assay dye solution was dispensed into each well followed by incubation at 37° C. and 5% CO2 for 50 minutes to incorporate the Ca^2+ dye into the cells. The cell plate was then placed in the Flexstation (Molecular Devices) for 20 minutes at 37° C. Compounds were dissolved in 100% DMSO and diluted to desired concentrations with assay buffer and placed in the Flexstation simultaneously with the cell plate for 20 minute incubation at 37° C. prior to reading. Fluorescence intensity was measured immediately following compound addition (25 μL/well) on the Flexstation at an excitation wavelength of 485 nm and an emission wavelength of 525 with 515 nm auto cutoff. The resulting increase in fluorescence intensities corresponds to increases in intracellular Ca^2+ levels.
Compounds were dissolved in 100% DMSO to a concentration of 20 mM to provide stock solutions. To determine activity against human GPR120, compounds were added with human GPR120 stably expressing cells (described above), at eight desired concentrations ranging from 0.00001 to 20 μM, in 96 well plates and fluorescence intensities were measured for 90 seconds with 2-second intervals. An EC50 value (concentration of the GPR120 agonist where 50% of the agonist's maximal activity is observed) was calculated using the changes (Max−Min) of fluorescence intensity.
To determine percent activity for a tested compound, the fluorescence intensity value obtained at a particular concentration were compared to the maximal fluorescence intensity value obtained for reference compound GW9508 (4-[[(3-phenoxyphenyl)methyl]amino]benzene propanoic acid; British Journal of Pharmacology 2006 148, 619-628) or the compound of Example 25. When GW9508 was used as the reference compound, the maximal activity of GW9508 at 6.7 μM was designated as 100% activity. When the compound of Example 25 was used as the reference compound, the maximal activity of the compound of Example 25 at 2.5 μM was designated as 100% activity. Typically, the GW9508 activity reached a maximum at a concentration of approximately 6.7 μM and typically the compound of Example 25 reached a maximum activity at approximately 2.5 μM.

On to `CC1(C)Cc2cc(Cl)cc(COc3ccc(CCC(=O)O)c(F)c3)c2O1` [Example 53, 3-(4-((5-chloro-2,2-dimethyl-2,3-dihydrobenzofuran-7-yl)methoxy)-2-fluorophenyl)-propanoic acid], for which the “% Activity (GW9508 Reference Compound)” value came out at 143.19%. `CC1(C)Cc2cc(Cl)cc(COc3cc(F)c(CCC(=O)O)c(F)c3)c2O1` [Example 54, 3-(4-((5-chloro-2,2-dimethyl-2,3-dihydrobenzofuran-7-yl)methoxy)-2,6-difluorophenyl)propanoic acid]: the “% Activity (GW9508 Reference Compound)” value came out at 138.97%. Regarding `COc1cc(CCC(=O)O)c(Br)cc1OCc1cc(F)cc2c1OC(C)(C)C2` [Example 56, 3-(2-bromo-4-((5-fluoro-2,2-dimethyl-2,3-dihydrobenzofuran-7-yl)methoxy)-5-methoxyphenyl)propanoic acid], the “% Activity (GW9508 Reference Compound)” value was 108.51%. Turning to `CC1(C)Cc2cc(Cl)cc(COc3ccc(SCC(=O)O)cc3)c2O1` [Example 59, 2-((4-((5-chloro-2,2-dimethyl-2,3-dihydrobenzofuran-7-yl)methoxy)phenyl)thio)-acetic acid], the “% Activity (GW9508 Reference Compound)” value came out at 117.58%.

`CC1(C)Cc2cc(F)cc(COc3ccc(CCC(=O)O)c4c3CCC4)c2O1` [Example 63, 3-(7-((5-fluoro-2,2-dimethyl-2,3-dihydrobenzofuran-7-yl)methoxy)-2,3-dihydro-1H-inden-4-yl)propanoic acid]: the “% Activity (GW9508 Reference Compound)” value is reported as 95.03%. In the case of `C[C@H](Cc1ccc(OCc2cc(F)cc3c2OC(C)(C)C3)cc1)C(=O)O` [Example 65, (R)-3-(4-((5-fluoro-2,2-dimethyl-2,3-dihydrobenzofuran-7-yl)methoxy)phenyl)-2-methylpropanoic acid], the “% Activity (GW9508 Reference Compound)” value was 141.04%. For `CC(Cc1ccc(NCc2cc(F)cc3c2OC(C)(C)C3)cc1)C(=O)O` (centres unmarked) [Example 67, 3-(4-(((5-fluoro-2,2-dimethyl-2,3-dihydrobenzofuran-7-yl)methyl)amino)phenyl)-2-methylpropanoic acid], the “% Activity (GW9508 Reference Compound)” value is listed as 141.82%. Consider `CC(Cc1ccc(NC(=O)c2cc(F)cc3c2OC(C)(C)C3)cc1)C(=O)O` (centres unmarked) [Example 68, 3-(4-(5-fluoro-2,2-dimethyl-2,3-dihydrobenzofuran-7-carboxamido)phenyl)-2-methylpropanoic acid], for which the “% Activity (GW9508 Reference Compound)” value is recorded as 69.03% and the EC50 (commonly the concentration at which the effect is half-maximal) was over 10 µM. Turning to `CCOC(Cc1cc(F)c(OCc2cc(F)cc3c2OC(C)(C)C3)c(F)c1)C(=O)O` (centres unmarked) [Example 69, 3-(3,5-difluoro-4-((5-fluoro-2,2-dimethyl-2,3-dihydrobenzofuran-7-yl)methoxy)phenyl)-2-ethoxypropanoic acid], the “% Activity (GW9508 Reference Compound)” value is given as 78.46% and the concentration for a half-maximal effect (EC50) is over 10 µM.

As to `CC1(C)Cc2cc(F)cc(CCc3ccc(OCC(=O)O)cc3)c2O1` [Example 70, 2-(4-(2-(5-fluoro-2,2-dimethyl-2,3-dihydrobenzofuran-7-yl)ethyl)phenoxy)acetic acid], the “% Activity (GW9508 Reference Compound)” value turned out to be 117.72%. Regarding `CC1(C)Cc2cc(Cl)cc(COc3ccc(CCC(=O)O)c(-c4ccccc4)c3)c2O1` [Example 71, 3-(5-((5-chloro-2,2-dimethyl-2,3-dihydrobenzofuran-7-yl)methoxy)-[1,1′-biphenyl]-2-yl)propanoic acid], the “% Activity (GW9508 Reference Compound)” value was determined as 133.8%. Still for that read-out and setting: as for `CCCc1cc(OCc2cc(Cl)cc3c2OC(C)(C)C3)c(F)cc1CCC(=O)O` [Example 73, 3-(4-((5-chloro-2,2-dimethyl-2,3-dihydrobenzofuran-7-yl)methoxy)-5-fluoro-2-propylphenyl)propanoic acid], the figure is 114.85%. With `CC(Cc1ccc(OCc2cc(Cl)cc3c2OC(C)(C)C3=O)c(F)c1)C(=O)O` (centres unmarked) [Example 77, 3-(4-((5-chloro-2,2-dimethyl-3-oxo-2,3-dihydrobenzofuran-7-yl)methoxy)-3-fluorophenyl)-2-methylpropanoic acid], the “% Activity (GW9508 Reference Compound)” value turned out to be 109.62%. On the same count and under the same terms, as for `CC(Cc1ccc(OCc2cc(Cl)cc3c2OC(C)(C)C3=O)c(C(F)(F)F)c1)C(=O)O` (centres unmarked) [Example 79, 3-(4-((5-chloro-2,2-dimethyl-3-oxo-2,3-dihydrobenzofuran-7-yl)methoxy)-3-(trifluoromethyl)phenyl)-2-methylpropanoic acid], the figure is 3.85%.

Regarding `CC(Cc1ccc(OCc2cc(Cl)cc3c2OC(C)(C)C3O)c(F)c1)C(=O)O` (centres unmarked) [Example 80, 3-(4-((5-chloro-3-hydroxy-2,2-dimethyl-2,3-dihydrobenzofuran-7-yl)methoxy)-3-fluorophenyl)-2-methylpropanoic acid], the “% Activity (GW9508 Reference Compound)” value was 86.25%. On the same count and under the same terms, as for `CC(Cc1ccc(OCc2cc(-c3ccc(Cl)cc3)cc3c2OC(C)(C)C3)cc1)C(=O)O` (centres unmarked) [Example 82, 3-(4-((5-(4-chlorophenyl)-2,2-dimethyl-2,3-dihydrobenzofuran-7-yl)methoxy)phenyl)-2-methylpropanoic acid], the figure is 24%. Consider `COc1cccc(-c2cc(COc3ccc(CC(C)C(=O)O)cc3)c3c(c2)CC(C)(C)O3)c1` (centres unmarked) [Example 86, 3-(4-((5-(3-methoxyphenyl)-2,2-dimethyl-2,3-dihydrobenzofuran-7-yl)methoxy)phenyl)-2-methylpropanoic acid], for which the “% Activity (GW9508 Reference Compound)” value was 5.23%. On the same count and under the same terms, as for `CC(Cc1ccc(OCc2cc(Cl)cc3c2OC(C)(C)C3)c(CN(C)C)c1)C(=O)O` (centres unmarked) [Example 88, 3-(4-((5-chloro-2,2-dimethyl-2,3-dihydrobenzofuran-7-yl)methoxy)-3-((dimethylamino)methyl)phenyl)-2-methylpropanoic acid], the figure is 118.92%; as for `CCN(CC)c1cc(COc2ccc(CC(C)C(=O)O)cc2)c2c(c1)CC(C)(C)O2` (centres unmarked) [Example 89, 3-(4-((5-(diethylamino)-2,2-dimethyl-2,3-dihydrobenzofuran-7-yl)methoxy)phenyl)-2-methylpropanoic acid], 82.28%.

As to `CC(Cc1ccc(OCc2cc(-n3cnnn3)cc3c2OC(C)(C)C3)cc1)C(=O)O` (centres unmarked) [Example 90, 3-(4-((2,2-dimethyl-5-(1H-tetrazol-1-yl)-2,3-dihydrobenzofuran-7-yl)methoxy)phenyl)-2-methylpropanoic acid], the “% Activity (GW9508 Reference Compound)” value came out at 75.86%. On the same count and under the same terms, as for `CC(Cc1ccc(OCc2ccc(F)c3c2CC(C)(C)O3)cc1)C(=O)O` (centres unmarked) [Example 91, 3-(4-((7-fluoro-2,2-dimethyl-2,3-dihydrobenzofuran-4-yl)methoxy)phenyl)-2-methylpropanoic acid], the figure is 121.29%; as for `CC1(C)Cc2c(COc3ccc4c(c3)CCC4CC(=O)O)ccc(F)c2O1` (centres unmarked) [Example 94, 2-(5-((7-fluoro-2,2-dimethyl-2,3-dihydrobenzofuran-4-yl)methoxy)-2,3-dihydro-1H-inden-1-yl)acetic acid], 98.45%; as for `CC(Cc1ccc(OCc2c(F)ccc3c2CC(C)(C)O3)cc1)C(=O)O` (centres unmarked) [Example 96, 3-(4-((5-fluoro-2,2-dimethyl-2,3-dihydrobenzofuran-4-yl)methoxy)phenyl)-2-methylpropanoic acid], 124.82%. For the compound `CC1(C)Cc2c(ccc(F)c2COc2c(F)cc(C3CC3C(=O)O)cc2F)O1` (centres unmarked) [Example 99, 2-(3,5-difluoro-4-((5-fluoro-2,2-dimethyl-2,3-dihydrobenzofuran-4-yl)methoxy)phenyl)cyclopropanecarboxylic acid], the “% Activity (GW9508 Reference Compound)” value was 101.53%.

The values are drawn from patent publication US20130109734A1 (Metabolex, Inc., priority 2010, published 2013).
